Patent US20100184698A1, “USE OF A […] […] A […] AGENT” (priority 2007, published 2010)
Where two headings read alike, the source gives them in different places. Where no end group is shown, it is not given here.

System: drug-resistant Mycobacterium tuberculosis

Molecule | inhibition of the growth of Mycobacterium tuberculosis [%] | inhibition of the growth of Mycobacterium tuberculosis (drug-resistant, 5 micrograms per ml) [%]
Ile-Asn-Leu-Lys-Ala-Leu-Ala-Ala-Leu-Ala-Lys-Lys-Ile-Leu-NH2 (INLKALAALAKKIL-NH2) [Peptide 2] | 100 | 
CCNC(=O)[C@@H]1CCCN1C(=O)[C@H](CCCN=C(N)N)NC(=O)[C@H](CC(C)C)NC(=O)[C@@H](Cc1c[nH]c2ccccc12)NC(=O)[C@H](Cc1ccc(O)cc1)NC(=O)[C@H](CO)NC(=O)[C@H](Cc1c[nH]c2ccccc12)NC(=O)[C@H](Cc1cnc[nH]1)NC(=O)[C@@H]1CCC(=O)N1 [Peptide 1, Pyr-His-Trp-Ser-Tyr-D-Trp-Leu-Arg-Pro-NHEt] |  | 100
